We go through one compound from US12390505B2, “Composition for preventing or treating obesity or diabetes, comprising acanthopanax senticosus extract and garcinia cambogia extract or compound isolated therefrom” (KOREA RESEARCH INSTITUTE OF BIOSCIENCE AND BIOTECHNOLOGY, priority 2020, dated 2025).

Each structure is given as a SMILES string.

Holding throughout (format): in vivo, mouse
Assay [1] can be described thus: Example 12 HFD mice: serum test. The conditions noted are these: serum of HFD mice, oral once daily for 10 weeks; chiisanogenin 50 mg/kg; Garcinia cambogia extract 200 mg/kg; combination 50 + 150 mg/kg; Met 50 mg/kg. As for the experimental part: The test drug was dispersed in 0.5% Carboxymethyl cellulose (CMC) and administered in a volume of 0.2 ml, and the drug was administered orally by force into the stomach using a metal Zonde for oral administration. Blood was collected by cardiac puncture to conduct a blood biochemical test after the end of the final experiment, and then plasma was separated by centrifugation at 3,000 rpm and 4° C. for 15 minutes within 30 minutes after blood collection, and then stored at −74° C. for blood chemistry and ELISA analysis. The contents of total cholesterol, high-density lipoprotein (HDL), low-density lipoprotein (LDL), triglyceride, FFA, glucose, and LDH, which are indicators of lipid content, were measured using an automated biochemical analyzer (Hitachi-720, Hitachi Medical, Japan). IGF-1 and Creatine were diluted in coating buffer, coated on microwells, and left overnight at 4° C. […] 100 μl of the TMB substrate was dispensed, left in the dark for 30 minutes, treated with 50 μl of the stop solution, and absorbance was measured at a wavelength of 450 nm using an ELISA reader. Results obtained from various experiments are recorded as mean±standard error of mean (SEM), and significance verification is determined using the student's T-test analysis method. […]

The next assay has as its system C/EBP-α mRNA. The assay can be described thus: Example 11 HFD mice: adipose tissue C/EBP-α mRNA analysis. The conditions noted are these: oral once daily 10 weeks, 50 mg/kg. The procedure:
After adapting 8-week-old male C57b1/6 J mice to the basic diet (AIN-76A diet) for 2 weeks, and consuming Diet Induced Obesity Diet Formulas (D12451) 60 kcal % HFD diet for 2 weeks from 10 weeks of age, and then the test drug was administered when the average body weight reached 28 g or more. The animal breeding room environment of the mouse was maintained in a constant temperature (25±2° C.), constant humidity (50±5%) and a 12-hour photoperiod (light on 07:00˜19:00) in which the light and shade were controlled in an SPF environment. […]
RNA was extracted from tissues using RNAsolB (Tel-Test) solution, and cDNA and real-time PCR analysis were performed using One-step SYBR Green PCR kit (AB science). […] Real time quantitative PCR was performed using the Applied Biosystems 7500 Real-Time PCR system (Applied Biosystems, USA).
Results obtained from various experiments are recorded as mean±standard error of mean (SEM), and significance verification is determined using the student's T-test analysis method. The data were analyzed using one-way ANOVA to determine a statistically significant variance between each group for each final point measured, and statistical significance between each group was determined using the nonparametric Mann-Whitney test and Dunnett's multiple comparison test (IBM SPSS statistics version 19.0 statistic software, Inc, IBM, USA).

Another assay has as its system PPAR-gamma mRNA. Put plainly: Example 12 HFD mice: adipose tissue PPAR-gamma mRNA analysis. The conditions noted are these: adipose tissue of HFD mice, oral once daily for 10 weeks, chiisanogenin 50 mg/kg, Garcinia cambogia extract 200 mg/kg, combination 50 + 150 mg/kg, Met 50 mg/kg. The procedure: The test drug was dispersed in 0.5% Carboxymethyl cellulose (CMC) and administered in a volume of 0.2 ml, and the drug was administered orally by force into the stomach using a metal Zonde for oral administration. RNA was extracted from tissues using RNAsolB (Tel-Test) solution, and cDNA and real-time PCR analysis were performed using One-step SYBR Green PCR kit (AB science). From the prepared cDNA, a FAM probe of [NT] ID NO: 16) sequence was used to amplify PPAR-gamma mRNA, and a VIC probe of [NT] ID NO: 15) sequence was used to amplify GAPDH mRNA as an intra control. Real time quantitative PCR was performed using the Applied Biosystems 7500 Real-Time PCR system (Applied Biosystems, USA). Results obtained from various experiments are recorded as mean±standard error of mean (SEM), and significance verification is determined using the student's T-test analysis method. The data were analyzed using one-way ANOVA to determine a statistically significant variance between each group for each final point measured, and statistical significance between each group was determined using the nonparametric Mann-Whitney test and Dunnett's multiple comparison test (IBM SPSS statistics version 19.0 statistic software, Inc, IBM, USA).

Regarding `CN(C)C(=N)N=C(N)N` [Met, Metformin], the “Creatin (mg/dL), mean ± standard error” value in assay [1] stood at 0.564 ± 0.011 mg/dL. Besides, in the assay with C/EBP-α mRNA, the “Inhibition Rate (C/EBP-α mRNA)” value is 75%. Further, the “C/EBP-α mRNA expression in adipose tissue” value with C/EBP-α mRNA (GAPDH control) came to 1.153 ± 0.320. Besides, the “PPAR-γ mRNA Inhibition Rate (%)” value with PPAR-gamma mRNA is recorded as 80%. Besides, the “PPAR-γ mRNA, mean ± standard error” value with PPAR-gamma mRNA (real-time PCR vs GAPDH) is recorded as 1.235 ± 0.42.
